Experimental data as given in US6969702B2, “Compounds and methods for increasing neurogenesis” (priority 2002, dated 2005).
Marks after values point to notes of the source that are not given here. Peptide text beside a SMILES is read from it.

Key:
[1] = system: mouse adult neural stem cells; experiment: ATP-assay: proliferation (ATP levels) of neurosphere-derived cells; conditions: for Fold Induction ATP: vs vehicle
[2] = system: cAMP activation in mouse adult neural stem cells; experiment: cAMP detection (HitHunter EFC Cyclic AMP Chemiluminescence Assay); conditions: Table 2

SMILES: CC(C)C[C@H](NC(=O)[C@H](CCCCN)NC(=O)CNC(=O)[C@H](CC(C)C)NC(=O)[C@@H](N)C(C)C)C(=O)N[C@@H](CO)C(=O)N[C@@H](CCC(N)=O)C(=O)N[C@@H](CCC(=O)O)C(=O)N[C@@H](CC(C)C)C(=O)N[C@@H](Cc1c[nH]cn1)C(=O)N[C@@H](CCCCN)C(=O)N[C@@H](CC(C)C)C(=O)N[C@@H](CCC(N)=O)C(=O)N[C@H](C(=O)N[C@@H](Cc1ccc(O)cc1)C(=O)N1CCC[C@H]1C(=O)N[C@@H](CCCNC(=N)N)C(=O)N[C@H](C(=O)N[C@@H](CC(N)=O)C(=O)N[C@H](C(=O)NCC(=O)N[C@@H](CO)C(=O)NCC(=O)N[C@H](C(=O)N1CCC[C@H]1C(N)=O)[C@@H](C)O)[C@@H](C)O)[C@@H](C)O)[C@@H](C)O (H-VLGKLSQELHKLQTYPRTNTGSGTP-NH2; N-terminus and C-terminus assumed)
- ATP (nM ATP/well) ([1]; Table 4, 100 nM): 15.0 ± 2.2 nM ATP/well

SMILES: CSCC[C@H](NC(=O)[C@H](CO)NC(=O)[C@H](Cc1ccc(O)cc1)NC(=O)[C@@H](N)CO)C(=O)N[C@@H](CCC(=O)O)C(=O)N[C@@H](Cc1cnc[nH]1)C(=O)N[C@@H](Cc1ccccc1)C(=O)N[C@@H](CCCNC(=N)N)C(=O)N[C@@H](Cc1c[nH]c2ccccc12)C(=O)NCC(=O)N[C@@H](CCCCN)C(=O)N1CCC[C@H]1C(=O)N[C@H](C(=O)NCC(=O)N[C@@H](CCCCN)C(=O)N[C@@H](CCCCN)C(=O)N[C@@H](CCCNC(=N)N)C(=O)N[C@@H](CCCNC(=N)N)C(=O)N1CCC[C@H]1C(=O)N[C@H](C(=O)N[C@@H](CCCCN)C(=O)N[C@H](C(=O)N[C@@H](Cc1ccc(O)cc1)C(=O)N1CCC[C@H]1C(=O)N[C@@H](CC(N)=O)C(=O)NCC(=O)N[C@@H](C)C(=O)N[C@@H](CCC(=O)O)C(=O)N[C@@H](CC(=O)O)C(=O)N[C@@H](CCC(=O)O)C(=O)N[C@@H](CO)C(=O)N[C@@H](C)C(=O)N[C@@H](CCC(=O)O)C(=O)N[C@@H](C)C(=O)N[C@@H](Cc1ccccc1)C(=O)N1CCC[C@H]1C(=O)N[C@@H](CC(C)C)C(=O)N[C@@H](CCC(=O)O)C(=O)N[C@@H](Cc1ccccc1)C(=O)O)C(C)C)C(C)C)C(C)C [ACTH (Human)] (H-SYSMEHFRWGKPVGKKRRPVKVYPNGAEDESAEAFPLEF-OH)
- Fold Induction cAMP ([2]; 100 nM, vs vehicle): 1.8** (100 nM) fold
- Fold Induction ATP ([1]; Table 2, 1000 nM, 4 days): 1.2* fold

SMILES: CSCC[C@H](NC(=O)[C@H](CO)NC(=O)[C@H](Cc1ccc(O)cc1)NC(=O)[C@@H](N)CO)C(=O)N[C@@H](CCC(=O)O)C(=O)N[C@@H](Cc1c[nH]cn1)C(=O)N[C@@H](Cc1ccccc1)C(=O)N[C@@H](CCCNC(=N)N)C(=O)N[C@@H](Cc1c[nH]c2ccccc12)C(=O)NCC(=O)N[C@@H](CCCCN)C(=O)N1CCC[C@H]1C(=O)N[C@H](C(=O)NCC(=O)N[C@@H](CCCCN)C(=O)N[C@@H](CCCCN)C(=O)N[C@@H](CCCNC(=N)N)C(=O)N[C@@H](CCCNC(=N)N)C(=O)N1CCC[C@H]1C(=O)N[C@H](C(=O)N[C@@H](CCCCN)C(=O)N[C@H](C(=O)N[C@@H](Cc1ccc(O)cc1)C(=O)N1CCC[C@H]1C(=O)N[C@@H](CC(N)=O)C(=O)NCC(=O)N[C@@H](C)C(=O)N[C@@H](CCC(=O)O)C(=O)N[C@@H](CC(=O)O)C(=O)N[C@@H](CCC(=O)O)C(=O)N[C@@H](CO)C(=O)N[C@@H](C)C(=O)N[C@@H](CCC(=O)O)C(=O)N[C@@H](C)C(=O)N[C@@H](Cc1ccccc1)C(=O)N1CCC[C@H]1C(=O)N[C@@H](CC(C)C)C(=O)N[C@@H](CCC(=O)O)C(=O)N[C@@H](Cc1ccccc1)C(=O)O)C(C)C)C(C)C)C(C)C [ACTH (Human)] (H-SYSMEHFRWGKPVGKKRRPVKVYPNGAEDESAEAFPLEF-OH; N-terminus and C-terminus assumed)
- cAMP (pmol/well) ([2]; 100 nM (cAMP concentration)): 0.11 ± 0.02 pmol/well
- ATP (nM ATP/well) ([1]; Table 2, 1000 nM, 4 days): 15.7 ± 1.3 nM ATP/well

SMILES: CC[C@H](C)[C@@H]1NC(=O)[C@H](CCCNC(=N)N)NC(=O)[C@H](CC(=O)O)NC(=O)[C@H](CCSC)NC(=O)[C@H](CCCNC(=N)N)NC(=O)CNC(=O)CNC(=O)[C@H](Cc2ccccc2)NC(=O)[C@@H](NC(=O)[C@H](CO)NC(=O)[C@H](CO)NC(=O)[C@H](CCCNC(=N)N)NC(=O)[C@H](CCCNC(=N)N)NC(=O)[C@H](CC(C)C)NC(=O)[C@@H](N)CO)CSSC[C@@H](C(=O)N[C@@H](CC(N)=O)C(=O)N[C@@H](CO)C(=O)N[C@@H](Cc2ccccc2)C(=O)N[C@@H](CCCNC(=N)N)C(=O)N[C@@H](Cc2ccc(O)cc2)C(=O)O)NC(=O)CNC(=O)[C@H](CC(C)C)NC(=O)CNC(=O)[C@H](CO)NC(=O)[C@H](CCC(N)=O)NC(=O)[C@H](C)NC(=O)CNC1=O [ANP (human)]
- ATP (nM ATP/well) ([1]; Table 4, 10 nM): 12.7 ± 1.0 nM ATP/well
- Fold Induction ATP ([1]; Table 4, 10 nM): 1.3* fold

SMILES: CC[C@H](C)[C@H](NC(=O)[C@H](CCC(N)=O)NC(=O)[C@H](Cc1c[nH]cn1)NC(=O)[C@H](C)NC(=O)[C@@H](N)CC(C)C)C(=O)N[C@@H](Cc1ccc(O)cc1)C(=O)N[C@@H](CCC(N)=O)C(=O)N[C@@H](Cc1ccccc1)C(=O)N[C@H](C(=O)N[C@@H](CC(=O)O)C(=O)N[C@@H](CCCCN)C(=O)N[C@@H](CC(=O)O)C(=O)N[C@@H](CCCCN)C(=O)N[C@@H](CC(=O)O)C(=O)N[C@@H](CC(N)=O)C(=O)N[C@H](C(=O)N[C@@H](C)C(=O)N1CCC[C@H]1C(=O)N[C@@H](CCCNC(=N)N)C(=O)N[C@@H](CO)C(=O)N[C@@H](CCCCN)C(=O)N[C@H](C(=O)N[C@@H](CO)C(=O)N1CCC[C@H]1C(=O)N[C@@H](CCC(N)=O)C(=O)NCC(=O)N[C@@H](Cc1ccc(O)cc1)C(N)=O)[C@@H](C)CC)C(C)C)[C@@H](C)O [Adrenomedullin (26-52)] (H-LAHQIYQFTDKDKDNVAPRSKISPQGY-NH2; N-terminus and C-terminus assumed)
- cAMP (pmol/well) ([2]; 1 nM (cAMP concentration)): 0.33 ± 0.07 pmol/well
- ATP (nM ATP/well) ([1]; Table 2, 1 nM, 4 days): 11.4 ± 0.7 nM ATP/well

SMILES: CC[C@H](C)[C@@H]1NC(=O)[C@H](CCCNC(=N)N)NC(=O)[C@H](CC(=O)O)NC(=O)[C@H](CCSC)NC(=O)[C@H](CCCNC(=N)N)NC(=O)CNC(=O)CNC(=O)[C@H](Cc2ccccc2)NC(=O)[C@@H](NC(=O)[C@H](CO)NC(=O)[C@H](CO)NC(=O)[C@H](CCCNC(=N)N)NC(=O)[C@H](CCCNC(=N)N)NC(=O)[C@H](CC(C)C)NC(=O)[C@@H](N)CO)CSSC[C@@H](C(=O)N[C@@H](CC(N)=O)C(=O)N[C@@H](CO)C(=O)N[C@@H](Cc2ccccc2)C(=O)N[C@@H](CCCNC(=N)N)C(=O)N[C@@H](Cc2ccc(O)cc2)C(=O)O)NC(=O)CNC(=O)[C@H](CC(C)C)NC(=O)CNC(=O)[C@H](CO)NC(=O)[C@H](CCC(N)=O)NC(=O)[C@H](C)NC(=O)CNC(=O)[C@H]([C@@H](C)CC)NC(=O)[C@H](CCCNC(=N)N)NC(=O)[C@H](CC(=O)O)NC(=O)[C@H](CCSC)NC(=O)[C@H](CCCNC(=N)N)NC(=O)CNC(=O)CNC(=O)[C@H](Cc2ccccc2)NC(=O)[C@@H](NC(=O)[C@H](CO)NC(=O)[C@H](CO)NC(=O)[C@H](CCCNC(=N)N)NC(=O)[C@H](CCCNC(=N)N)NC(=O)[C@H](CC(C)C)NC(=O)[C@@H](N)CO)CSSC[C@@H](C(=O)N[C@@H](CC(N)=O)C(=O)N[C@@H](CO)C(=O)N[C@@H](Cc2ccccc2)C(=O)N[C@@H](CCCNC(=N)N)C(=O)N[C@@H](Cc2ccc(O)cc2)C(=O)O)NC(=O)CNC(=O)[C@H](CC(C)C)NC(=O)CNC(=O)[C@H](CO)NC(=O)[C@H](CCC(N)=O)NC(=O)[C@H](C)NC(=O)CNC1=O [Beta-ANP]
- cAMP (pmol/well) ([2]; 100 nM (cAMP concentration)): 070 ± 0.04 pmol/well
- ATP (nM ATP/well) ([1]; Table 2, 100 nM, 4 days): 13.6 ± 2.1 nM ATP/well

SMILES: CC[C@H](C)[C@H](NC(=O)[C@H](C)NC(=O)[C@@H](NC(=O)[C@H](CCC(N)=O)NC(=O)[C@@H]1CCCN1C(=O)[C@H](Cc1ccccc1)NC(=O)[C@@H](NC(=O)[C@H](Cc1c[nH]cn1)NC(=O)[C@H](Cc1ccccc1)NC(=O)[C@H](CCCCN)NC(=O)[C@H](CC(N)=O)NC(=O)[C@H](Cc1ccccc1)NC(=O)[C@H](CC(=O)O)NC(=O)[C@H](CCC(N)=O)NC(=O)[C@@H](NC(=O)[C@H](Cc1ccc(O)cc1)NC(=O)[C@@H](NC(=O)CNC(=O)[C@H](CC(C)C)NC(=O)[C@H](CCSC)NC(=O)[C@@H]1CSSC[C@H](N)C(=O)NCC(=O)N[C@@H](CC(N)=O)C(=O)N[C@@H](CC(C)C)C(=O)N[C@@H](CO)C(=O)N[C@@H]([C@@H](C)O)C(=O)N1)[C@@H](C)O)[C@@H](C)O)[C@@H](C)O)[C@@H](C)O)C(=O)NCC(=O)N[C@H](C(=O)NCC(=O)N[C@@H](C)C(=O)N1CCC[C@H]1C(N)=O)C(C)C [Calcitonin (human)]
- cAMP (pmol/well) ([2]; 100 nM (cAMP concentration)): 0.35 ± 0.15 pmol/well
- ATP (nM ATP/well) ([1]; Table 2, 100 nM, 4 days): 9.9 ± 1.6 nM ATP/well

SMILES: CC[C@H](C)[C@H](NC(=O)[C@H](CC(=O)O)NC(=O)[C@H](CC(C)C)NC(=O)[C@H](Cc1cnc[nH]1)NC(=O)[C@@H]1CSSC[C@H](N)C(=O)N[C@@H](CO)C(=O)N[C@H]2CSSC[C@H](NC(=O)[C@H](CCC(=O)O)NC(=O)[C@H](CCCCN)NC(=O)[C@H](CC(=O)O)NC(=O)[C@H](CCSC)NC(=O)[C@H](CC(C)C)NC(=O)[C@H](CO)NC(=O)[C@H](CO)NC2=O)C(=O)N[C@@H](C(C)C)C(=O)N[C@@H](Cc2ccc(O)cc2)C(=O)N[C@@H](Cc2ccccc2)C(=O)N1)C(=O)N[C@H](C(=O)N[C@@H](Cc1c[nH]c2ccccc12)C(=O)O)[C@@H](C)CC [Endothelin-1 (human, Bovine, Canine, Mouse, Porcine, Rat)]
- ATP (nM ATP/well) ([1]; Table 4, 10 nM): 14.4 ± 2.4 nM ATP/well
- Fold Induction ATP ([1]; Table 4, 10 nM, 0.01 µM): 3.2* fold

SMILES: CC(C)Cn1c(=O)n(C)c(=O)c2[nH]cnc21 [IBMX, 3-Isobutyl-1-Methylxanthine]
- proliferation of neural stem cells ([1]; cAMP activators, GPCR-independent): increase
